The values below come from patent publication US20210179655A1, “Prodrugs of a JAK Inhibitor Compound for Treatment of Gastrointestinal Inflammatory Disease” (THERAVANCE BIOPHARMA R&D IP, LLC, priority 2015, published 2021).

Each structure is given as a SMILES string.

The target in data set [1] is β-glucuronidase (Escherichia coli, UniProt P05804). The experiment in a line: Metabolic stability of compound 1 in β-glucuronidase from E. coli. It counts as in vitro ADME. As to conditions: purified β-glucuronidase from E. coli, β-glucuronidase 100 Units/mL, 37° C. As for the experimental part:
The incubations were quenched at timepoints 0, 1, 2, 3, 5, 10, 15, 30, 60, and 90 min by addition of 100 μL of ACN. Samples were diluted with water+1% formic acid (4×) and analyzed using a Thermo Q-Exactive™ LC-MS system.

In data set [2] the test system is oxazolone-induced colitis. The experiment in a line: Mouse model of oxazolone-induced colitis. It counts as in vivo. The procedure:
Oxazolone-induced colitis is an experimental model that has a histological resemblance to human ulcerative colitis (Heller et al. […], 2002, 17, 629-638). Adult BALB/C mice (25-28 g, 9-12 weeks of age) from BioNeeds (India) were used in the assay. On day 1, animals were lightly anesthetized with isoflurane and the hairs between the shoulder were carefully removed before oxazolone (6 mg/mouse, 100 μL, 4:1 acetone: olive oil formulation) or vehicle solution was slowly applied for skin sensitization. Six days after skin sensitization, the mice were fasted overnight, anesthetized with ketamine and xylazine administered IP, and a 1 mL syringe filled with oxazolone solution, was inserted carefully ˜3.8 cm into the colon of the mouse. Animals were kept in a head down position and oxazolone (0.5 mg/50 μL/mouse in 50% ethanol) or 50% ethanol/saline was rectally instilled very slowly over a minute. The mice were held vertically (head down) for another minute to ensure that the entire oxazolone solution remained inside the colon. Drug treatment (PO, BID or TID) or vehicle was initiated the evening prior to the oxazolone intrarectal (IR) challenge. On both first (Day 1) and second (Day 2) days post-oxazolone IR challenge, the Disease Activity Index (DAI) was assessed by treatment-blinded experimenters for each mouse, according to the following subscores: stool consistency (0, normal; 2, loose; 4, diarrhea), gross bleeding and hemoccult test (0, absence; 2, blood tinged; 4, overt blood presence), and weight loss (0, none; 1, 1%-5%; 2, 6%-10%; 3, 11%-15%; 4, more than 15%); DAI=average of (stool consistency+blood presence+weight loss scores).
An area-under-the-curve (AUC) calculation based on total DAI scores was performed to track disease progression during the course of the experiment. AUC for each experimental group was calculated as: AUC=[(Day 1−Day 0)*Average (DAI Score of Day 0 & Day 1)]+[(Day 2−Day 1)*Average (DAI Score of Day 1 & Day 2)]. A Student's t-test compared the DAI AUC score of the vehicle/vehicle and vehicle/oxazolone groups to evaluate whether disease was induced following oxazolone treatment. This was followed by a one way ANOVA, with Dunnett's post hoc test, to compare the DAI AUC score of the vehicle/oxazolone and test compound/oxazolone groups. Statistical significance was defined by an α level set at p<0.05.

A short description of data set [3]: Metabolic stability of comparison compounds in rat colon content. Type of data set: in vitro ADME. As to conditions: 10 μM in rat colonic content, up to 120 min. The procedure:
Colonic fecal content was harvested from a naïve male Sprague Dawley rat and was diluted 1:10 (1 gram to 9 mL phosphate buffer) and then homogenized using a handheld Omni Tissue Master. […] A 5 μL aliquot of diluted test compound was spiked into 300 μL of rat colonic content homogenate to begin the reaction at 37° C. Aliquots (50 μL) were removed from the incubation at the following time points (0, 15, 50, 85, and 120 min) and added into 200 μL of ACN with 3% formic acid and an internal standard molecule. […] All samples were centrifuged at 2000×g for 10 min after which 50 μL of supernatant was diluted into 150 μL of water and analyzed using a Thermo Q-Exactive LC-MS system. GraphPad Prism and Microsoft Excel were used to tabulate and plot the data.

The target in data set [4] is JAK1 (Homo sapiens, UniProt P23458). The data set can be described thus: Biochemical JAK kinase assay (LanthaScreen) JAK1.
Sequence of JAK1 (P23458 whole entry): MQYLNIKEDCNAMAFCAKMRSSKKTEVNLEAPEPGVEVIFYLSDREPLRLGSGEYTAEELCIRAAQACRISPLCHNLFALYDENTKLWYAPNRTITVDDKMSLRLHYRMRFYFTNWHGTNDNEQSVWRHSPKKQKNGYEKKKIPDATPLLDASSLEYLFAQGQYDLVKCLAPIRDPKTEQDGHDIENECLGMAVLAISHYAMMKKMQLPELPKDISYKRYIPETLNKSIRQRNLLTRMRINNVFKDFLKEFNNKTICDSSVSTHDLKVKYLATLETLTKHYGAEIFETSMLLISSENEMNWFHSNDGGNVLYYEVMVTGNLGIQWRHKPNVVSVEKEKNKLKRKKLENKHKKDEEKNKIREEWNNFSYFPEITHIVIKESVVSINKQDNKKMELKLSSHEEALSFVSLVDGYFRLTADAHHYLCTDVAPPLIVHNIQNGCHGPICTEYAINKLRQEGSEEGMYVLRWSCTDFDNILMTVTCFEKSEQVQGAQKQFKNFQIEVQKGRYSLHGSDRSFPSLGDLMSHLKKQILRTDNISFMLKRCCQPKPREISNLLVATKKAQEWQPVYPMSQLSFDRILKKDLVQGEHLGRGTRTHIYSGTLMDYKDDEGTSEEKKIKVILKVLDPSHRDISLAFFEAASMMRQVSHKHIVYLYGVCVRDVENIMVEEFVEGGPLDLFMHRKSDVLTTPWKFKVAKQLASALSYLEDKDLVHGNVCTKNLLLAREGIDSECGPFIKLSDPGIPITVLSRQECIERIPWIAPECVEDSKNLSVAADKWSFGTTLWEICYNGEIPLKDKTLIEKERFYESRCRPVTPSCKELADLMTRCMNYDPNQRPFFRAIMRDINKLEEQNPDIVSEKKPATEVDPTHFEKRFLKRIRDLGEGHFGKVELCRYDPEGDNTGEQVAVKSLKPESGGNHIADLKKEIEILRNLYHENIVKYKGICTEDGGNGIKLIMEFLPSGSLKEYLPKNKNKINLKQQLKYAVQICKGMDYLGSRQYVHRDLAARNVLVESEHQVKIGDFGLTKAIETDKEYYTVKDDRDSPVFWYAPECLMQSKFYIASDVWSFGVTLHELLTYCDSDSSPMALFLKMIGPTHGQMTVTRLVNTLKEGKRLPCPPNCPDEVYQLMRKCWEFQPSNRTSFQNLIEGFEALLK
Experimental: (§1) A panel of four LanthaScreen JAK biochemical assays (JAK1, 2, 3 and Tyk2) were carried in a common kinase reaction buffer (50 mM HEPES, pH 7.5, 0.01% Brij-35, 10 mM MgCl2, and 1 mM EGTA). Recombinant GST-tagged JAK enzymes and a GFP-tagged STAT1 peptide substrate were obtained from Life Technologies.
(§2) Serially diluted compounds were pre-incubated with each of the four JAK enzymes and the substrate in white 384-well microplates (Corning) at ambient temperature for 1 h. ATP was subsequently added to initiate the kinase reactions in 10 μL total volume, with 1% DMSO. […] The JAK1 kinase activity was also tested at 1 mM ATP concentration. […] The plates were allowed to incubate at ambient temperature for 1 h before being read on the EnVision reader (Perkin Elmer).
(§3) For dose-response analysis, percent inhibition data were plotted vs. compound concentrations, and IC50 values were determined from a 4-parameter robust fit model with the Prism software (GraphPad Software). Results were expressed as pIC50 (negative logarithm of IC50) and subsequently converted to pKi (negative logarithm of dissociation constant, Ki) using the Cheng-Prusoff equation.
Data set [5] concerns the target T1, JAK3 (Homo sapiens, UniProt P52333).
T1 sequence (P52333 1-1124): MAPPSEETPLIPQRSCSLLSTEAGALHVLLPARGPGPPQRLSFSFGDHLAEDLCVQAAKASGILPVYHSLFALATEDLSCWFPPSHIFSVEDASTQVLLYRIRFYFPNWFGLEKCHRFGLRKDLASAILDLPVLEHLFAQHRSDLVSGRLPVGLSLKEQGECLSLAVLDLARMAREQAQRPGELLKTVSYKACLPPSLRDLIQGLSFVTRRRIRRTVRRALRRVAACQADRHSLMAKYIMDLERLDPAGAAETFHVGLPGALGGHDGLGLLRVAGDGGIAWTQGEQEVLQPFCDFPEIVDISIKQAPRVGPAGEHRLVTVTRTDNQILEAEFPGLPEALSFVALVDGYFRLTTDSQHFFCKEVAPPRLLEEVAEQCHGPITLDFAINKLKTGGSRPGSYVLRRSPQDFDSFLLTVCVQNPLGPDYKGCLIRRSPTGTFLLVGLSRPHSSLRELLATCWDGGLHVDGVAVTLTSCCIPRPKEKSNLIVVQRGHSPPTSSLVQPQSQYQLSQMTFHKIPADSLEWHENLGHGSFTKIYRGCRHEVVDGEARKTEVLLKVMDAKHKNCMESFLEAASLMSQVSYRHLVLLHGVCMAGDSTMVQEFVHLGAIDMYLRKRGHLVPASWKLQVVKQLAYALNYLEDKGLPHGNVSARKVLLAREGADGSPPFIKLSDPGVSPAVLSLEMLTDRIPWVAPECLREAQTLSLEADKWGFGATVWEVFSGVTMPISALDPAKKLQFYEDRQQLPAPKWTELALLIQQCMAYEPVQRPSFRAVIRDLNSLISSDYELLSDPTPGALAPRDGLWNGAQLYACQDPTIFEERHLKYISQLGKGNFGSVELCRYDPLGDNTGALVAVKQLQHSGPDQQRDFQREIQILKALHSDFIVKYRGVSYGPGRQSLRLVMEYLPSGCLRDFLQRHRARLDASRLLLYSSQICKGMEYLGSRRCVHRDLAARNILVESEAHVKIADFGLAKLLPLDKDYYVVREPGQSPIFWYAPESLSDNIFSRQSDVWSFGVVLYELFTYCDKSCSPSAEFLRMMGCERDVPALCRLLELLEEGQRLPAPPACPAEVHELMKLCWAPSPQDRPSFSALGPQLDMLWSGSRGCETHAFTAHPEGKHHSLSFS
The data set can be described thus: Biochemical JAK kinase assay (LanthaScreen) JAK3.
Experimental: as §1, §2, §3

Sequence of β-glucuronidase (P05804 whole entry): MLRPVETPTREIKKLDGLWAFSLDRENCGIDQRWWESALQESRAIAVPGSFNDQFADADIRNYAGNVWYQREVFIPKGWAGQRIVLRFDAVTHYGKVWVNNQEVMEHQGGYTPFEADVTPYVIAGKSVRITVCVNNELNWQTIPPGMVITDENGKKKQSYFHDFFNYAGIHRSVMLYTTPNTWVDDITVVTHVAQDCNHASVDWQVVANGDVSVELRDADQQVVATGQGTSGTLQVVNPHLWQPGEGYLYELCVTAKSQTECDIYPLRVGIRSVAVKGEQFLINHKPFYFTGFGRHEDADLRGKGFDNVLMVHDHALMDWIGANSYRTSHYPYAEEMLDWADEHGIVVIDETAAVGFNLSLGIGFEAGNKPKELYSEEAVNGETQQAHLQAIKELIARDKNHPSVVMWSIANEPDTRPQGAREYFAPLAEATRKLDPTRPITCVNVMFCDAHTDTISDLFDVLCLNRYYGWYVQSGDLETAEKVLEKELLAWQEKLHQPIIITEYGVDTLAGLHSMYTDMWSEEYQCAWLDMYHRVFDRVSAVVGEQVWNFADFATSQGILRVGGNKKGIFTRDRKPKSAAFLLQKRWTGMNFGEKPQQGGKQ

For `C[C@@H]1CCN(C(=O)CC#N)C[C@@H]1N(C)c1ncnc2c1ccn2C(=O)N(C)CCN(C)C(=O)OCc1ccc(O[C@@H]2O[C@H](C(=O)O)[C@@H](O)[C@H](O)[C@H]2O)c([N+](=O)[O-])c1` [Compound 1, (2S,3S,4S,5R,6S)-6-(4-((((2-(4-(((3R,4R)-1-(2-cyanoacetyl)-4-methylpiperidin-3-yl)(methyl)amino)-N-methyl-7H-pyrrolo[2,3-d]pyrimidine-7-carboxamido)ethyl)(methyl)carbamoyl)oxy)methyl)-2-nitrophenoxy)-3,4,5-trihydroxytetrahydro-2H-pyran-2-carboxylic acid], the half-life (usually the time needed for the level to fall by half in the phase considered) at 30 μM in data set [1] is < 5 min. Further, the “reversal of oxazolone-induced colitis (DAI AUC score)” value in data set [2] (3, 10, and 60 mg/kg, PO, BID, similar magnitude to tofacitinib 30 and 60 mg/kg) is recorded as “significant reversal”. Further, the “In vivo efficacy (oxazolone colitis), effective dose” value in data set [2] (Effective dose that exhibits a comparable pharmacological effect in the oxazolone model compared to its vehicle) came to 3 mg/kg. The “generation of active metabolite from the pro-drug” value in data set [3] is recorded as “generated measurable levels”. Further, in data set [4], the IC50 (in general, the concentration needed to halve the response being measured) is > 10000 nM; the Ki (as a rule, the dissociation constant of the complex between target and ligand, obtained from inhibition or displacement) is > 501 nM. Moreover, the inhibition constant Ki in data set [5] is > 158 nM.
